Assay in all cases: cell-based
One experiment has as its target hNav1.7 (Homo sapiens, UniProt Q15858). The format is cell-based. Conditions: IonWorks Quattro, read-out: IWQ Use Nav1.7. Background: The patch-clamp technique gives a direct electrical read-out from membranes.
In a further experiment the target is hNav1.5 (Homo sapiens, UniProt Q14524).
The target in the next experiment is hNav1.3 (Homo sapiens, UniProt Q9NY46). Particulars: IonWorks Quattro, read-out: IWQ Use Nav1.3.

Read-outs that look alike come from different tables or passages of the source. Positions of bridges follow the written chain, without caps; N, C: chain ends. Non-standard residues stand in square brackets, D forms with d. Residues, ends and D or L forms follow the SMILES beside them. Pra = C#CC[C@H](N)C(=O)O

Chain of hNav1.7 (Q15858 whole entry, looked up): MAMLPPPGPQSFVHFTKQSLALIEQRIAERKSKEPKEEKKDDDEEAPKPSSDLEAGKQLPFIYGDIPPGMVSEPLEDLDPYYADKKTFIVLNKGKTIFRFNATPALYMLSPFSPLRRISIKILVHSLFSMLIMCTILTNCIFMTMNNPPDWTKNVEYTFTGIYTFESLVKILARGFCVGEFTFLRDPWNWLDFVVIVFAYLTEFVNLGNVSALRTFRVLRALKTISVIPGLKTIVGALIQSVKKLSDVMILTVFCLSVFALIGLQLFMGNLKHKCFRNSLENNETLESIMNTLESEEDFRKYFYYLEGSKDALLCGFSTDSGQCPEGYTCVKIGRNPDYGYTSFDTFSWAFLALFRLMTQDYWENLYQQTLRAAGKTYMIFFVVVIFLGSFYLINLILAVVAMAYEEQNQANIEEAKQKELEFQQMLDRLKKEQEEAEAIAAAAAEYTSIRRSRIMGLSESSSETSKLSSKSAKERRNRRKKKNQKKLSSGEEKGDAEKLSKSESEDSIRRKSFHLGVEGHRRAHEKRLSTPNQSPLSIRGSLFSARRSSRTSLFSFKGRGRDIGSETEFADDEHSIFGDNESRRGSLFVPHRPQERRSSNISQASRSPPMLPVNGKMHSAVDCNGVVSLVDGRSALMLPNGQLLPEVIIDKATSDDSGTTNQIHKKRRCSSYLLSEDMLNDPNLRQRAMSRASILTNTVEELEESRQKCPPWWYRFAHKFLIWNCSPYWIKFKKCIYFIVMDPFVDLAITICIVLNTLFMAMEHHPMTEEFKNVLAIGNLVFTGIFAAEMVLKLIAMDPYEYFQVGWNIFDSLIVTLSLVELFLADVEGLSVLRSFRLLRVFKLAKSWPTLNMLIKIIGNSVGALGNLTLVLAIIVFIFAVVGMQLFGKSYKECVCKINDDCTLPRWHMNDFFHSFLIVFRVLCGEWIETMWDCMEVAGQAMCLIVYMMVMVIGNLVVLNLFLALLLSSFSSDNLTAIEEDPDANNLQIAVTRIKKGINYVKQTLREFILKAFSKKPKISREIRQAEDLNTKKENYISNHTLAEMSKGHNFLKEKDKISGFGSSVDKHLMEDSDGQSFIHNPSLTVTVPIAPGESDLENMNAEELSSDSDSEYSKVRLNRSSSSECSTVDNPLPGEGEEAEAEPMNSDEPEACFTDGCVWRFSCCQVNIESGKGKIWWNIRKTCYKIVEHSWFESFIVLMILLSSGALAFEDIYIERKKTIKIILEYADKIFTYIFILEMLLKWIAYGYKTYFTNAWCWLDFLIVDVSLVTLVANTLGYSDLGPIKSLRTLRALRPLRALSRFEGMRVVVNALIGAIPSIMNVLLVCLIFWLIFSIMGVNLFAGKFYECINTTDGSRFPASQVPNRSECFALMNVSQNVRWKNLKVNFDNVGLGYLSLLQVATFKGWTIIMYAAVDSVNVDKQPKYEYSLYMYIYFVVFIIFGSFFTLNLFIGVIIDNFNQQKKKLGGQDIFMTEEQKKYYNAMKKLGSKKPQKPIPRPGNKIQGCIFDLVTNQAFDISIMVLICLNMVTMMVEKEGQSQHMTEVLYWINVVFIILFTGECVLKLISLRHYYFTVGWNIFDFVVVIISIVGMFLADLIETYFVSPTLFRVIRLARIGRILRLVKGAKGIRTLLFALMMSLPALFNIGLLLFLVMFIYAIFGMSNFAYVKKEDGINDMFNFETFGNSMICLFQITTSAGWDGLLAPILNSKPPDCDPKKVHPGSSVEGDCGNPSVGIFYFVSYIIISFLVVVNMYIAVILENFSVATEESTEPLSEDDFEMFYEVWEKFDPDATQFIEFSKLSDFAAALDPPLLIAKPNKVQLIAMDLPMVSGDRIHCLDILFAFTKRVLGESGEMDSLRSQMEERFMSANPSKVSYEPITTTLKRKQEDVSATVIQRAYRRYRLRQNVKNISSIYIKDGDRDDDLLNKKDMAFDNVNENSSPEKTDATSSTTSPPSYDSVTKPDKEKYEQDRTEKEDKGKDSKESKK
Chain of hNav1.5 (Q14524 whole entry, looked up): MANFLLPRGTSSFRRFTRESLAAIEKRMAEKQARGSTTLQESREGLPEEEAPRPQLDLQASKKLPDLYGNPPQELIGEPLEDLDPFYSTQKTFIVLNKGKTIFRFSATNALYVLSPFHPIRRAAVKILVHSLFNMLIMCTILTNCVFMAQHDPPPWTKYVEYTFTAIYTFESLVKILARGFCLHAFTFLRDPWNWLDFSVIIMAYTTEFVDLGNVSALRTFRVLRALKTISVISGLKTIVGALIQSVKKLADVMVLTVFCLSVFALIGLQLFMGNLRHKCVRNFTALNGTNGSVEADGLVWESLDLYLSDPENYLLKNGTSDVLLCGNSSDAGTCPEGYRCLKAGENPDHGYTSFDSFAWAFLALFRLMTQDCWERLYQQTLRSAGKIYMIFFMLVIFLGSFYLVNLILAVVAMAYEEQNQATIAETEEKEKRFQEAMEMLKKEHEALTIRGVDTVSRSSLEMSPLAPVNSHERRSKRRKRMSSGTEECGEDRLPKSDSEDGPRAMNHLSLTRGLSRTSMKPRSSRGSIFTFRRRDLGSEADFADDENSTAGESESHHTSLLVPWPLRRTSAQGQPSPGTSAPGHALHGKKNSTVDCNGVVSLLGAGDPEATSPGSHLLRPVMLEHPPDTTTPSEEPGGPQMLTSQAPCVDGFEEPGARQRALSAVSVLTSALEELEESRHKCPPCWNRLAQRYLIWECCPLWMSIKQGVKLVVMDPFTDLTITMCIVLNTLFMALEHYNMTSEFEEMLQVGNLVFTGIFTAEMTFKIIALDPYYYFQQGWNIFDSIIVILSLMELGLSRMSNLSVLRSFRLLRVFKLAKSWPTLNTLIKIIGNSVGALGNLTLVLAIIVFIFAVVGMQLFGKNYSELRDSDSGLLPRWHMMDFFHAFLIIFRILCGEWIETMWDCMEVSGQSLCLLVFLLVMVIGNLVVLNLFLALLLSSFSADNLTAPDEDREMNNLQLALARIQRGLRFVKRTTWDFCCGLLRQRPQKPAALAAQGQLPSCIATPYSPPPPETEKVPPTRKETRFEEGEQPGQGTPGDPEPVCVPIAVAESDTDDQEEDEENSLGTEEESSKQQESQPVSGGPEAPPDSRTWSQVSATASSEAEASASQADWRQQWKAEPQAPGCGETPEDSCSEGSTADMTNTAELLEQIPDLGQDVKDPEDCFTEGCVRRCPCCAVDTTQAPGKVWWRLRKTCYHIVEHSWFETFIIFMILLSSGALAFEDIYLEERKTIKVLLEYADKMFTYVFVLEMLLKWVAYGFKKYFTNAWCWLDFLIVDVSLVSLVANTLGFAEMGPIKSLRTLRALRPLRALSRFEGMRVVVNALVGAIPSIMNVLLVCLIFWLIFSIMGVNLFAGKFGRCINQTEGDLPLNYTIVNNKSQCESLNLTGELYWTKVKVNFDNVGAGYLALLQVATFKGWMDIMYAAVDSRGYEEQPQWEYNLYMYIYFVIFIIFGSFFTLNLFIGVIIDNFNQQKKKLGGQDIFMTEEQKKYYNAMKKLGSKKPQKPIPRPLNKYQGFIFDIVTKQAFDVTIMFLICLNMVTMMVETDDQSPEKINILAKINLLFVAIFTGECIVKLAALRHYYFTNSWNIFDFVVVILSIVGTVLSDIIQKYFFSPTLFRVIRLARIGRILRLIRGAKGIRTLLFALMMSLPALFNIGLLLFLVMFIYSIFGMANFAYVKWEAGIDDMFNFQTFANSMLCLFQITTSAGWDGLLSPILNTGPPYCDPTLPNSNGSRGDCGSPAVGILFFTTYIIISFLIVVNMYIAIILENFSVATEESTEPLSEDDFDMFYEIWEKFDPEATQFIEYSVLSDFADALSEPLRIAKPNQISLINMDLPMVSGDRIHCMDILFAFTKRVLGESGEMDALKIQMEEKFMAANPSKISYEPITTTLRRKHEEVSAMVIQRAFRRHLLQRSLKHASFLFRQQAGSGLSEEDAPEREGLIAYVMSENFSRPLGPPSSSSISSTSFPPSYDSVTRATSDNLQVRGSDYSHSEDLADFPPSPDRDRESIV

Consider `CSCC[C@@H]1NC(=O)[C@H](Cc2ccccc2)NC(=O)CNC(=O)[C@H](CC(C)C)NC(=O)[C@@H](NC(=O)[C@@H](N)CC(=O)O)CSSC[C@@H]2NC(=O)[C@@H]3CSSC[C@@H](C(=O)N[C@@H](CCCCN)C(=O)N[C@@H](Cc4ccc(O)cc4)C(=O)N[C@H](C(=O)N[C@@H](Cc4ccccc4)C(N)=O)C(C)C)NC(=O)[C@H](Cc4c[nH]c5ccccc45)NC(=O)[C@H](CCCCN)NC(=O)[C@H](Cc4c[nH]cn4)NC(=O)[C@H]([C@@H](C)O)NC(=O)[C@H](CCCNC(=N)N)NC(=O)[C@H](CO)NC(=O)[C@H](CSSC[C@H](NC(=O)[C@H](CCCCN)NC(=O)[C@H](CCCNC(=N)N)NC1=O)C(=O)N1CCC[C@H]1C(=O)N1CCC[C@H]1C(=O)N[C@@H](CC(=O)O)C(=O)N[C@@H](CC(N)=O)C(=O)N[C@@H](CC(=O)O)C(=O)N[C@@H](CCCCN)C(=O)N3)NC(=O)[C@H](C(C)C)NC(=O)[C@H](CC(C)C)NC(=O)[C@H](CC(N)=O)NC(=O)[C@@H]1CCCN1C(=O)[C@H](CCCNC(=N)N)NC2=O` [compound 308] (H-DCLGFMRKCPPDNDKCCRPNLVCSRTHKWCKYVF-NH2; disulfide 2-17, 9-23, 16-30), for which the IC50 at hNav1.7 (Use) was 400 nM; on hNav1.5 (IonWorks Quattro, Use, read-out: IWQ Use Nav1.5) it was greater than 5 µM; on hNav1.3 (Use), 240 nM.
With `CC[C@H](C)[C@@H]1NC(=O)[C@@H]2CSSC[C@@H]3NC(=O)[C@H](C(C)C)NC(=O)[C@H](CC(C)C)NC(=O)[C@H](CC(N)=O)NC(=O)[C@@H]4CCCN4C(=O)[C@H](CCCNC(=N)N)NC(=O)[C@H](CSSC[C@H](NC(=O)[C@@H](N)CC(=O)O)C(=O)N[C@@H](CC(C)C)C(=O)NCC(=O)N[C@@H](Cc4cccnc4)C(=O)N[C@@H](CC(C)C)C(=O)N[C@@H](CCCNC(=N)N)C(=O)N[C@@H](CCCCN)C(=O)N2)NC(=O)[C@H](CSSC[C@@H](C(=O)N[C@@H](CCCCN)C(=O)N[C@@H](Cc2ccc(O)cc2)C(=O)N[C@H](C(=O)N[C@@H](Cc2ccccc2)C(N)=O)C(C)C)NC(=O)[C@H](Cc2c[nH]c4ccccc24)NC(=O)[C@H](CCCCN)NC(=O)[C@H](Cc2c[nH]cn2)NC(=O)[C@H]([C@@H](C)O)NC(=O)[C@H](CCCNC(=N)N)NC(=O)[C@H](CO)NC3=O)NC(=O)[C@H](CCCCN)NC(=O)[C@H](CC(=O)O)NC(=O)[C@H](CC(N)=O)NC(=O)[C@H](CC(=O)O)NC(=O)[C@@H]2CCCN2C1=O` [compound 642], the IC50 at hNav1.7 (use-dependent protocol, hNav1.7) was 1700 nM; on hNav1.5 (IonWorks Quattro, use-dependent protocol, hNav1.5, read-out: IWQ Use Nav1.5) it was greater than 5 µM; at hNav1.3 (use-dependent protocol, hNav1.3), 3900 nM.
On to `CC[C@H](C)[C@@H]1NC(=O)[C@@H]2CSSC[C@@H]3NC(=O)[C@H](C(C)C)NC(=O)[C@H](CC(C)C)NC(=O)[C@H](CC(N)=O)NC(=O)[C@@H]4CCCN4C(=O)[C@H](CCCNC(=N)N)NC(=O)[C@H](CSSC[C@H](NC(=O)[C@@H](N)CC(=O)O)C(=O)N[C@@H](CC(C)C)C(=O)NCC(=O)N[C@@H](Cc4ccccc4)C(=O)N[C@@H](CCSC)C(=O)N[C@@H](CCCNC(=N)N)C(=O)N[C@@H](CCCCN)C(=O)N2)NC(=O)[C@H](CSSC[C@@H](C(=O)N[C@@H](CCCCN)C(=O)N[C@@H](Cc2ccc(O)cc2)C(=O)N[C@H](C(=O)N[C@@H](Cc2ccccc2)C(N)=O)C(C)C)NC(=O)[C@H](Cc2c[nH]c4ccccc24)NC(=O)[C@H](CCCCN)NC(=O)[C@H](CCCCN)NC(=O)[C@H]([C@@H](C)O)NC(=O)[C@H](CCCNC(=N)N)NC(=O)[C@H](CO)NC3=O)NC(=O)[C@H](CCCCN)NC(=O)[C@H](CC(=O)O)NC(=O)[C@H](CC(N)=O)NC(=O)[C@H](CC(=O)O)NC(=O)[C@@H]2CCCN2C1=O` [compound 55] (H-DCLGFMRKCIPDNDKCCRPNLVCSRTKKWCKYVF-NH2; disulfide 2-17, 9-23, 16-30), for which the IC50 on hNav1.7 (Table 23, use, […]) was determined as 1510 nM; on hNav1.5 (Table 23, IonWorks Quattro, use, […], read-out: IWQ Use Nav1.5), 11.5 µM; at hNav1.3 (Table 23, use, […]) it was 2480 nM.
Turning to `CC[C@H](C)[C@@H]1NC(=O)[C@@H]2CSSC[C@@H]3NC(=O)[C@H](C(C)C)NC(=O)[C@H](CC(C)C)NC(=O)[C@H](CC(N)=O)NC(=O)[C@@H]4CCCN4C(=O)[C@H](CCCNC(=N)N)NC(=O)[C@H](CSSC[C@H](NC(=O)[C@@H](N)CC(=O)O)C(=O)N[C@@H](CC(C)C)C(=O)NCC(=O)N[C@@H](Cc4ccccc4)C(=O)N[C@@H](CCSC)C(=O)N[C@@H](CCCNC(=N)N)C(=O)N[C@@H](CCCCN)C(=O)N2)NC(=O)[C@H](CSSC[C@@H](C(=O)N[C@@H](CCCCN)C(=O)N[C@@H](CCC(N)=O)C(=O)N[C@H](C(=O)N[C@@H](Cc2ccccc2)C(N)=O)C(C)C)NC(=O)[C@H](Cc2c[nH]c4ccccc24)NC(=O)[C@H](CCCCN)NC(=O)[C@H](Cc2c[nH]cn2)NC(=O)[C@H]([C@@H](C)O)NC(=O)[C@H](CCCNC(=N)N)NC(=O)[C@H](CO)NC3=O)NC(=O)[C@H](CCCCN)NC(=O)[C@H](CC(=O)O)NC(=O)[C@H](CC(N)=O)NC(=O)[C@H](CC(=O)O)NC(=O)[C@@H]2CCCN2C1=O` [compound 366] (H-DCLGFMRKCIPDNDKCCRPNLVCSRTHKWCKQVF-NH2; disulfide 2-17, 9-23, 16-30), the IC50 at hNav1.7 (Table 25, use, […]) is 4870 nM; at hNav1.5 (Table 25, IonWorks Quattro, use, […], read-out: IWQ Use Nav1.5), 21 µM; at hNav1.3 (Table 25, use, […]), 2390 nM.
As for `C#CC[C@@H]1NC(=O)[C@H](CC(=O)O)NC(=O)[C@H](CC(N)=O)NC(=O)[C@H](CC(=O)O)NC(=O)[C@@H]2CCCN2C(=O)[C@H]([C@@H](C)CC)NC(=O)[C@@H]2CSSC[C@@H]3NC(=O)[C@H](C(C)C)NC(=O)[C@H](CC(C)C)NC(=O)[C@H](CC(N)=O)NC(=O)[C@@H]4CCCN4C(=O)[C@H](CCCNC(=N)N)NC(=O)[C@H](CSSC[C@H](NC(=O)[C@@H](N)CC(=O)O)C(=O)N[C@@H](CC(C)C)C(=O)NCC(=O)N[C@@H](Cc4ccccc4)C(=O)N[C@@H](Cc4ccccc4)C(=O)N[C@@H](CCCNC(=N)N)C(=O)N[C@@H](CCCCN)C(=O)N2)NC(=O)[C@H](CSSC[C@@H](C(=O)N[C@@H](CCCCN)C(=O)N[C@@H](Cc2ccc(O)cc2)C(=O)N[C@H](C(=O)N[C@@H](Cc2ccccc2)C(N)=O)C(C)C)NC(=O)[C@H](Cc2c[nH]c4ccccc24)NC(=O)[C@H](CCCCN)NC(=O)[C@H](Cc2c[nH]cn2)NC(=O)[C@H]([C@@H](C)O)NC(=O)[C@H](CCCNC(=N)N)NC(=O)[C@H](CO)NC3=O)NC1=O` [compound 736] (H-DCLGFFRKCIPDND[Pra]CCRPNLVCSRTHKWCKYVF-NH2; disulfide 2-17, 9-23, 16-30), the IC50 on hNav1.7 (use-dependent block, hNav1.7) is greater than 5000 nM; on hNav1.5 (IonWorks Quattro, use-dependent block, hNav1.5, read-out: IWQ Use Nav1.5), 32.6 µM; on hNav1.3 (use-dependent block, hNav1.3), greater than 5000 nM.
Consider `CC[C@H](C)[C@H](NC(=O)[C@@H](NC(=O)[C@H](Cc1ccc(O)cc1)NC(=O)[C@H](CCCCN)NC(=O)[C@@H]1CSSC[C@@H]2NC(=O)[C@H](CCCCN)NC(=O)[C@H](CC(=O)O)NC(=O)[C@H](CC(N)=O)NC(=O)[C@H](CC(=O)O)NC(=O)[C@@H]3CCCN3C(=O)[C@H]([C@@H](C)CC)NC(=O)[C@@H]3CSSC[C@H](NC(=O)[C@H](C(C)C)NC(=O)[C@H](CC(C)C)NC(=O)[C@H](CC(N)=O)NC(=O)[C@@H]4CCCN4C(=O)[C@H](CCCNC(=N)N)NC(=O)[C@H](CSSC[C@H](NC(=O)[C@@H](N)CC(=O)O)C(=O)N[C@@H](CC(C)C)C(=O)NCC(=O)N[C@@H](Cc4ccccc4)C(=O)N[C@@H](CCSC)C(=O)N[C@@H](CCCNC(=N)N)C(=O)N[C@@H](CCCCN)C(=O)N3)NC2=O)C(=O)N[C@@H](CO)C(=O)N[C@@H](CCCNC(=N)N)C(=O)N[C@@H]([C@@H](C)O)C(=O)N[C@@H](Cc2c[nH]cn2)C(=O)N[C@@H](CCCCN)C(=O)N[C@@H](Cc2c[nH]c3ccccc23)C(=O)N1)C(C)C)C(N)=O` [compound 96] (H-DCLGFMRKCIPDNDKCCRPNLVCSRTHKWCKYVI-NH2; disulfide 2-17, 9-23, 16-30), for which the IC50 at hNav1.7 (use-dependent, […]) worked out at 280 nM; on hNav1.5 (IonWorks Quattro, use-dependent, […], read-out: IWQ Use Nav1.5), 10.8 µM; on hNav1.3 (use-dependent, […]) it was 280 nM.
As for `CC[C@H](C)[C@@H]1NC(=O)[C@@H]2CSSC[C@@H]3NC(=O)[C@H](C(C)C)NC(=O)[C@H](CC(C)C)NC(=O)[C@H](CC(N)=O)NC(=O)[C@@H]4CCCN4C(=O)[C@H](CCCNC(N)=O)NC(=O)[C@H](CSSC[C@H](NC(=O)[C@@H](N)CC(=O)O)C(=O)N[C@@H](CC(C)C)C(=O)NCC(=O)N[C@@H](Cc4ccccc4)C(=O)N[C@@H](CCSC)C(=O)N[C@@H](CCCNC(=N)N)C(=O)N[C@@H](CCCCN)C(=O)N2)NC(=O)[C@H](CSSC[C@@H](C(=O)N[C@@H](CCCCN)C(=O)N[C@@H](Cc2ccc(O)cc2)C(=O)N[C@H](C(=O)N[C@@H](Cc2ccccc2)C(N)=O)C(C)C)NC(=O)[C@H](Cc2c[nH]c4ccccc24)NC(=O)[C@H](CCCCN)NC(=O)[C@H](Cc2cnc[nH]2)NC(=O)[C@H]([C@@H](C)O)NC(=O)[C@H](CCCNC(=N)N)NC(=O)[C@H](CO)NC3=O)NC(=O)[C@H](CCCCN)NC(=O)[C@H](CC(=O)O)NC(=O)[C@H](CC(N)=O)NC(=O)[C@H](CC(=O)O)NC(=O)[C@@H]2CCCN2C1=O` [compound 116], the IC50 on hNav1.7 (Use) is 170 nM; on hNav1.5 (IWQ Use Nav1.5 (μM)), 11 µM; at hNav1.3 (Use) it was 230 nM.

These data come from US9340590B2 (priority 2011, dated 2016).
